Experimental data as given in PMC10467082, “Anti-Toxoplasma gondii Effects of Lipopeptide Derivatives of Lycosin-I” (Toxins, 2023).

Experiments:
T. gondii tachyzoites [1] = type: cell-based, Toxoplasma gondii
Procedure: The HFF cells were seeded in 6-well plates (1 × 10^6 cells per well) and incubated for 48–72 h. Cells in the 6-well plates were infected with 500 fresh tachyzoites per well for 2 h. The well in which cells were not infected with tachyzoites was considered the blank control group. Cells infected with tachyzoites were then treated with Lycosin-I (10 μM), L-C12 (10 μM), L-an (10 μM), SDZ (10 μM, positive control) and DMEM (negative control), respectively. After 7 days, HFFs in the plates were washed twice with PBS, fixed with methanol for 5 min, and then stained with crystal violet for 20 min. Six-well plates were washed with running water, dried, photographed, and then the number and area of plaques were counted using Photoshop version 2020. Three independent experiments were carried out.

RH strain of T. gondii = type: in vivo, mouse; conditions: mouse, in vivo, ip, 4 mg/kg/day
Procedure: To evaluate the anti-T. gondii effect of lipopeptides in vivo, we established a mouse model acutely infected with the RH strain of T. gondii. Forty 8-week-old female BALB/c mice weighing 17–19 g were randomly divided into 5 groups (n = 8 per group) and intraperitoneally injected with 1 × 10^3 tachyzoites per mouse. Lycosin-I, L-C12, L-an and sulfadiazine (SDZ) were dissolved in PBS, respectively. As these peptides are small linear peptides that are easily degraded by pepsin; mice were treated with these peptides via intraperitoneal injection (the same way that the mice were infected with T. gondii) rather than oral gavage. After 4 h of infection, mice were traperitoneally injected with 4 mg/kg of Lycosin-I, L-C12, L-an and sulfadiazine solution (once a day) for 7 days. Mice in the negative control group were treated with PBS. Mice in this condition observed daily and the time of death was recorded. The experiment was approved by the Ethics Committee of the School of Basic Medicine of Central South University (approval number: 2021-KT24).

T. gondii tachyzoites [2] = conditions: mouse, in vivo
Procedure: Therefore, the mice were treated with 4 mg/kg/day of SDZ or lipopetides for 7 days, and the survival time of the mice was closely monitored for 15 days. […] We also determined the parasite load in the peritoneal fluid and tissues of mice acutely infected with T. gondii after 5 days of treatment. The number of tachyzoites in the peritoneal fluid of the mice was directly counted using a blood cell counting plate (Figure 4B), while the expression of the surface antigen SAG1, a membrane surface protein specific to tachyzoites, was detected via qRT-PCR in the heart, liver, spleen, lung and brain of the mice (Figure 4C–G).
(§1) Total RNA was extracted from each sample using Total RNA Isolation Kit (ENOVA BIO Co., Ltd., Wuhan, China), in accordance with the manufacturer’s instructions. Reverse transcription of RNA into cDNA was performed using the PerfectStart Uni RT&qPCR Kit (TransGen Biotech Co., Ltd., Beijing, China) in accordance with the instructions. cDNA was used as a template for qRT-PCR using PerfectStart Uni RT&qPCR Kit (TransGen Biotech Co., Ltd., Beijing, China). Primers, listed in Table 2, were designed and synthesized by a biotechnology company (Sangon Biotech Co., Ltd., Shanghai, China). Analysis was performed using the comparative threshold cycle method (2^−∆∆Ct). The gene expression levels of genes were normalized to those of housekeeping genes (β-actin or GAPDH).

IFN-γ = type: in vivo, mouse; conditions: mouse, in vivo
Procedure: (§2) Once T. gondii has infected a host, a number of inflammatory responses can be induced in the host to resist T. gondii invasion and proliferation. Therefore, we wanted to investigate the expression levels of anti-inflammatory and pro-inflammatory factors in the mice treated with lipopeptides. The expression levels of IFN-γ, TNF-α, IL-4 and IL-10 in the spleen tissues of mice after 5 days of treatment were determined via qRT-PCR (Figure 5). […] Compared to the PBS group, all treatment groups promoted the upregulation of the pro-inflammatory cytokines IFN-γ and TNF-α and the anti-inflammatory cytokine IL-4.
as §1

IL-10 = type: in vivo, mouse; conditions: mouse, in vivo
Procedure: as §2, §1

IL-4 = type: in vivo, mouse; conditions: mouse, in vivo
Procedure: as §2, §1

TNF-α = type: in vivo, mouse; conditions: mouse, in vivo
Procedure: as §2, §1

Toxoplasma [3] = conditions: cited from earlier work
Excerpt: To evaluate the efficacy of the lipopeptides in vivo, we established a mouse model of acute T. gondii infection.

Toxoplasma [4] = conditions: mouse; cited from earlier work
Excerpt: We established a mouse model acutely infected with tachyzoites, recorded the survival time of the mice and determined the parasite load in the tissues of the mice. Lycosin-I and L-an can effectively prolong the survival time of mice.

## Nc1ccc(S(=O)(=O)Nc2ncccn2)cc1 [SDZ, Sulfadiazine]
T. gondii tachyzoites [1]
  number and area of plaques in contrast with DMEM group: significantly reduced
  plaques compared to DMEM group: no obvious plaque
RH strain of T. gondii
  survival time of mice compared to control group: could not prolong the survival time
T. gondii tachyzoites [2]
  parasite load in peritoneal fluid and tissues compared to PBS group: effectively inhibit the proliferation of tachyzoites in mice
IFN-γ
  expression of IFN-γ in spleen compared to PBS group: promoted the expression
IL-10
  expression of IL-10 in spleen compared to PBS group: inhibited the upregulation of IL-10
IL-4
  expression of IL-4 in spleen compared to PBS group: promoted IL-4 expression
TNF-α
  expression of TNF-α in spleen compared to PBS group: promoted the expression
Toxoplasma [3]
  anti-Toxoplasma effect in vitro: anti-Toxoplasma effect was also observed
Toxoplasma [4]
  anti-Toxoplasma effect in vivo: anti-Toxoplasma effect was also observed
